Measurements as given in patent US10045978B2 (AB SCIENCE, priority 2010, dated 2018).

How the values were obtained:
[1] = system: Ba/F3 cells expressing human or mouse wild-type c-Kit; settings: stem cell factor-induced proliferation and c-Kit tyrosine phosphorylation; cited from earlier work
[2] = system: patients with severe systemic mastocytosis; test: Example 5 post-hoc analysis of pooled phase 2 studies; assay type: in vivo, human
Procedure: A first phase 2 study was conducted in patients with indolent forms of mastocytosis with handicap and not bearing activating point mutations in the phosphotransferase domain of c-Kit such as the main mutation Asp-816-Val. A second phase 2 study was conducted in patients with mastocytosis with handicap and bearing activating point mutations in the phosphotransferase domain of c-Kit such as the main mutation Asp-816-Val.
In one scenario, among those systemic mastocytosis patients from these pooled studies, 28 patients met the criteria for severe handicap at baseline, as defined as having at least one handicap selected from pruritus, flushes, fatigue or depression (defined respectively as: pruritus score ≥9, flushes frequency per week ≥8, FIS ≥75, or Hamilton score ≥19) with a total of 53 severe baseline handicaps reported (note that a given patient may present with more than one handicap). Assessment of treatment response on a handicap was defined as a ≥75% improvement from baseline on at least one handicap among pruritus, flushes, fatigue or depression.
In an alternative scenario, among those systemic mastocytosis patients from these pooled studies, 4 patients met the criteria for severe handicap at baseline, as defined as having handicaps of both pruritus and flushes (defined respectively as: pruritus score ≥9, and flushes frequency per week ≥8) with a total of 8 severe baseline handicaps reported. Assessment of treatment response on a handicap was defined as a ≥75% improvement from baseline on at least one handicap among pruritus or flushes. Overall, at week 24 there was a response rate of 50.0%.

[3] = system: patients with indolent forms of mastocytosis with handicap; settings: in vivo
[4] = from W8 to W24, listed as Masitinib

**Q.** With `Cc1ccc(NC(=O)c2ccc(CN3CCN(C)CC3)cc2)cc1Nc1nc(-c2cccnc2)cs1` [masitinib, 4-(4-methylpiperazin-1-ylmethyl)-N-[4-methyl-3-(4-pyridin-3ylthiazol-2-ylamino)phenyl]benzamide] as the compound, how does the IC50 [1] read?
**A.** 0.15 ± 0.08 µM

**Q.** What about the “Overall response ≥75%” value ([2]; Week 12, at least one severe handicap at baseline (28 patients)) of the same compound?
**A.** 28.3%

**Q.** And the “Overall response ≥75%” value ([2]; Week 12, at least one severe handicap at baseline (28 patients), listed as Masitinib)?
**A.** 25.0%

**Q.** What about the “Overall response ≥75%” value ([2]; Week 24, at least one severe handicap at baseline (28 patients)) of the same compound?
**A.** 23.5%

**Q.** And the “Overall response ≥75%” value ([2]; Week 24, at least one severe handicap at baseline (28 patients), listed as Masitinib)?
**A.** 23.5%

**Q.** What about the “Overall response ≥75%” value ([2]; Week 24, severe pruritus and flushes at baseline (4 patients, 8 handicaps)) of the same compound?
**A.** 50.0

**Q.** And the “Cumulative response rate (≥75%): FIS only” value ([2]; from W8 to W24)?
**A.** 8.0%

**Q.** And the “Cumulative response rate (≥75%): Flushes only” value ([2]; from W8 to W24)?
**A.** 52.8%

**Q.** And the “Cumulative response rate (≥75%): Flushes or Pruritus” value ([2]; from W8 to W24)?
**A.** approximately 40%

**Q.** What about the “Cumulative response rate (≥75%): Hamilton only” value ([2]; from W8 to W24) of the same compound?
**A.** 16.7%

**Q.** And the “Cumulative response rate (≥75%): Hamilton or FIS” value ([2]; from W8 to W24)?
**A.** ~10%

**Q.** What about the “Cumulative response rate (≥75%): Micturition frequency (pollakiuria) only” value ([2]; from W8 to W24) of the same compound?
**A.** 1.8%

**Q.** What about the “Cumulative response rate (≥75%): Overall Response” value ([2]; from W8 to W24) of the same compound?
**A.** 26.1%

**Q.** What about the “Cumulative response rate (≥75%): Pruritus only” value ([2]; from W8 to W24) of the same compound?
**A.** 28.6%

**Q.** What about the “Cumulative response rate (≥75%): Stool frequency (diarrhea) only” value ([2]; from W8 to W24) of the same compound?
**A.** 18.4%

**Q.** And the “Cumulative response rate (≥75%): Flushes or Pruritus” value [2, 4]?
**A.** 38.8%

**Q.** And the “Cumulative response rate (≥75%): Hamilton or FIS” value [2, 4]?
**A.** 10.3%

**Q.** And the “deaths during the study” value [3]?
**A.** No deaths
